Where a SMILES comes first, the peptide text is derived from it. [ ]: non-standard residue; d: D form. Ac6c = NC1(C(=O)O)CCCCC1; Api = NC1(C(=O)O)CCNCC1; Aib = CC(C)(N)C(=O)O
Columns and labels:
[1] = tested on: B. abortus infected BALB/c mice; details: mouse, in vivo
in vitro = details: BALB/c, mouse, normal (non-infected) primary murine peritoneal macrophages, Normal Macrophage Survival Rate
[2] = Circular dichroism (CD) in SDS micelles, percent helicity; type: physicochemical
B. abortus strain 2308 = tested on: B. abortus strain 2308; parameters: species or system BALB/c mice; details: mouse, in vivo; for % Bacterial Reduction: iv
[3] = tested on: Murine macrophages infected with virulent B. abortus, strain 2308; type: cell-based, BALB/c mice
[4] = tested on: Escherichia coli, ATCC 25922; details: for Peptide minimum inhibitory concentration, E. coli: MIC after 4 h, median of 3-7 tests, corrected for actual peptide concentration
[5] = tested on: Staphylococcus aureus, ATCC 25723; details: for Peptide minimum inhibitory concentration, S. aureus: MIC after 4 h, median of 3-7 tests, corrected for actual peptide concentration
Solubility in water = details: without any organic modifier present
trypsin = trypsin (Sus scrofa, UniProt P00761); assay: Resistance to trypsin, E. coli MIC assay after trypsin incubation; details: trypsin 20 min at 37° C., then MIC assay with E. coli
trypsin, sequence (P00761 9-231): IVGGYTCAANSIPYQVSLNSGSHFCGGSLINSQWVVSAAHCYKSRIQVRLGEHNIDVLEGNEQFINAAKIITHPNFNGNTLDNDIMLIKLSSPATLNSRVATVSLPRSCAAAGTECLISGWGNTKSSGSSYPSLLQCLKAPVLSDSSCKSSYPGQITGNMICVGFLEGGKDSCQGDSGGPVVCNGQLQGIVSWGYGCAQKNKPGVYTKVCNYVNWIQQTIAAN

[6] = tested on: Normal murine macrophages; details: 10 μM

Row | Molecule | Stress or death of infected mice after treatment [1] | viability at 1 h, 0.1 µM (in vitro) [%] | viability at 1 h, 1 µM (in vitro) [%] | viability at 1 h, 10 µM (in vitro) [%] | viability at 1 h, 50 µM (in vitro) [%] | Effect of incubation with trypsin on antibacterial activity (trypsin) | Peptide minimum inhibitory concentration, E. coli [4] [µM] | Peptide minimum inhibitory concentration, S. aureus [5] [µM] | further results
1 | CC(=O)NC(C)(C)C(=O)NC(C)(C)C(=O)NC1(C(=O)N[C@@H](CCCCN)C(=O)NC(C)(C)C(=O)NC(C)(C)C(=O)NC2(C(=O)N[C@@H](CCCCN)C(=O)NC(C)(C)C(=O)NC(C)(C)C(N)=O)CCNCC2)CCNCC1 [Pi-10-ac, Ac—AibAibApiLysAibAibApiLysAibAib—NH2] (Ac-[Aib][Aib][Api]K[Aib][Aib][Api]K[Aib][Aib]-NH2) | died immediately after treatment | 92 | 89 | 88 | 49 |  |  |  | 
2 | CC(C)(N)C(=O)NC(C)(C)C(=O)NC1(C(=O)N[C@@H](CCCCN)C(=O)NC(C)(C)C(=O)NC(C)(C)C(=O)NC2(C(=O)N[C@@H](CCCCN)C(=O)NC(C)(C)C(=O)NC(C)(C)C(N)=O)CCNCC2)CCNCC1 [Pi-10, H—AibAibApiLysAibAibApiLysAibAib—NH2] (H-[Aib][Aib][Api]K[Aib][Aib][Api]K[Aib][Aib]-NH2) |  | 95 | 89 | 90 | 68 | did not decrease antibacterial activity |  |  | % Helicity (% α helix) ([2]; CD, 25 mM SDS micelles, 100-200 μM peptide): 43%; Reduction of bacterial load compared to controls (in words) (B. abortus strain 2308): significantly reduced bacterial load; % Bacterial Reduction (B. abortus strain 2308): 90%; Infected Macrophage Survival Rate [3]: 55.0 ± 1.00; Antibacterial activity against E. coli (in words) [4]: good antibacterial activity; Antibacterial activity against S. aureus (in words) [5]: moderate activity; Solubility in water (Solubility in water): readily soluble in water
3 | H-KWKVFKKIEKMGRNIRNGIVKAGPAIAVLGEAKAL-NH2 [cecropin B, reference compound] |  |  |  |  |  | destroyed antibacterial activity |  |  | 
4 | CC(=O)NC1(C(=O)NC(C)(C)C(=O)NC(C)(C)C(=O)N[C@@H](CCCCN)C(=O)NC(C)(C)C(=O)NC(C)(C)C(=O)N[C@@H](CCCCN)C(=O)NC(C)(C)C(=O)NC(C)(C)C(=O)NC2(C(N)=O)CCNCC2)CCNCC1 [Ipi-10-ac, Ac—ApiAibAibLysAibAibLysAibAibApi—NH2] (Ac-[Api][Aib][Aib]K[Aib][Aib]K[Aib][Aib][Api]-NH2) | did not die, but showed physiological signs of stress |  |  |  |  |  |  |  | 
5 | NCCCC[C@H](NC(=O)[C@H](CCCCN)NC(=O)C1(NC(=O)C2(NC(=O)[C@H](CCCCN)NC(=O)C3(NC(=O)C4(NC(=O)[C@H](CCCCN)NC(=O)[C@H](CCCCN)NC(=O)C5(NC(=O)C6(NC(=O)[C@@H](N)CCCCN)CCCCC6)CCCCC5)CCCCC4)CCCCC3)CCCCC2)CCCCC1)C(=O)NC1(C(N)=O)CCCCC1 [Ch-13, H—LysChChLysLysChChLysChChLysLysCh—NH2] (H-K[Ac6c][Ac6c]KK[Ac6c][Ac6c]K[Ac6c][Ac6c]KK[Ac6c]-NH2) | died immediately after treatment |  |  |  |  | did not decrease antibacterial activity | 6.5 | 2.2 | Survival of infected mice after treatment [1]: lived
6 | CC(C)(NC(=O)[C@H](CCCCN)NC(=O)C(C)(C)NC(=O)C(C)(C)NC(=O)C1(N)CCNCC1)C(=O)NC(C)(C)C(=O)N[C@@H](CCCCN)C(=O)NC(C)(C)C(=O)NC(C)(C)C(=O)NC1(C(N)=O)CCNCC1 [Ipi-10, H—ApiAibAibLysAibAibLysAibAibApi—NH2] (H-[Api][Aib][Aib]K[Aib][Aib]K[Aib][Aib][Api]-NH2) | did not die, but showed physiological signs of stress |  |  |  |  | did not decrease antibacterial activity |  |  | 222/206 intensity ratio (CD) ([2]; in the presence of SDS micelles): 0.32; % Bacterial Reduction (B. abortus strain 2308): 55%; Solubility in water (Solubility in water): readily soluble in water
7 | H-GIGKFLHSAKKFGKAFVGEIMNS-OH [magainin 2, reference compound] |  |  |  |  |  | destroyed antibacterial activity |  |  | 
8 | CC(C)(NC(=O)C(C)(C)NC(=O)[C@H](CCCCN)NC(=O)[C@H](CCCCN)NC(=O)C(C)(C)NC(=O)C(C)(C)NC(=O)[C@H](CCCCN)NC(=O)C(C)(C)NC(=O)C(C)(C)NC(=O)[C@H](CCCCN)NC(=O)[C@@H](N)CCCCN)C(N)=O [Ai-11, H—LysLysAibAibLysAibAibLysLysAibAib—NH2] (H-KK[Aib][Aib]K[Aib][Aib]KK[Aib][Aib]-NH2) |  | 88 | 89 | 81 | 56.6 | did not decrease antibacterial activity | 55 | >220 | Effect of peptide treatment on normal macrophages (in words) [6]: small effect
9 | CC(=O)N[C@@H](CCCCN)C(=O)N[C@@H](CCCCN)C(=O)NC(C)(C)C(=O)NC(C)(C)C(=O)N[C@@H](CCCCN)C(=O)NC(C)(C)C(=O)NC(C)(C)C(=O)N[C@@H](CCCCN)C(=O)N[C@@H](CCCCN)C(=O)NC(C)(C)C(=O)NC(C)(C)C(N)=O [Ai-11-ac, Ac—LysLysAibAibLysAibAibLysLysAibAib—NH2] (Ac-KK[Aib][Aib]K[Aib][Aib]KK[Aib][Aib]-NH2) |  | 92 | 82 | 86 | 58.5 | did not decrease antibacterial activity | 6.6 | 212 | Effect of peptide treatment on normal macrophages (in words) [6]: small effect
10 | H-KAAKKAAKAAKKAA-NH2 [Al-14, H—LysAlaAlaLysLysAlaAlaLysAlaAlaLysLysAlaAla—NH2, reference compound] |  |  |  |  |  |  | >178 | >178 | % Bacterial Reduction (B. abortus strain 2308): −6%
11 | NCCCC[C@H](NC(=O)[C@H](CCCCN)NC(=O)C1(NC(=O)C2(NC(=O)[C@H](CCCCN)NC(=O)C3(NC(=O)C4(NC(=O)[C@H](CCCCN)NC(=O)[C@@H](N)CCCCN)CCCCC4)CCCCC3)CCCCC2)CCCCC1)C(=O)NC1(C(N)=O)CCCCC1 [Ch-10, H—LysLysChChLysChChLysLysCh—NH2] (H-KK[Ac6c][Ac6c]K[Ac6c][Ac6c]KK[Ac6c]-NH2) | died immediately after treatment |  |  |  |  | did not decrease antibacterial activity | 5.7 | 2.8 | Survival of infected mice after treatment [1]: lived
12 | NCCCC[C@H](NC(=O)[C@H](CCCCN)NC(=O)C1(NC(=O)C2(NC(=O)[C@H](CCCCN)NC(=O)C3(NC(=O)C4(NC(=O)[C@H](CCCCN)NC(=O)[C@@H](N)CCCCN)CCCCC4)CCCCC3)CCCCC2)CCCCC1)C(=O)NC1(C(=O)NC2(C(N)=O)CCCCC2)CCCCC1 [Ch-11, H—LysLysChChLysChChLysLysChCh—NH2] (H-KK[Ac6c][Ac6c]K[Ac6c][Ac6c]KK[Ac6c][Ac6c]-NH2) |  |  |  |  |  |  | 5.2 | 2.6 | 
13 | CC(C)(NC(=O)C(C)(C)NC(=O)[C@H](CCCCN)NC(=O)[C@H](CCCCN)NC(=O)C(C)(C)NC(=O)C(C)(C)NC(=O)[C@H](CCCCN)NC(=O)C(C)(C)NC(=O)C(C)(C)NC(=O)[C@H](CCCCN)NC(=O)[C@H](CCCCN)NC(=O)C(C)(C)NC(=O)C(C)(C)NC(=O)[C@@H](N)CCCCN)C(N)=O [Ai-14, H—LysAibAibLysLysAibAibLysAibAibLysLysAibAib—NH2] (H-K[Aib][Aib]KK[Aib][Aib]K[Aib][Aib]KK[Aib][Aib]-NH2) |  | 91 | 88 | 88 | 57 | did not decrease antibacterial activity | 5.5 | 11 | 

Source: US6566334B1, “Short amphipathic peptides with activity against bacteria and intracellular pathogens” (priority 1997, dated 2003)
